≈ marks a conversion by molar mass, not a printed value. Where two headings read alike, the source gives them in different places.
Assays:
[1] = test system: Escherichia coli K-12 R5; assay: microbe, parasite or virus in culture; format: cell-based; conditions: K12R5, 18 h
[2] = test system: Pseudomonas aeruginosa TI-13; assay: MIC, serial dilution on nutrient agar; format: cell-based; conditions: TI13, 18 h
[3] = test system: Escherichia coli K-12 1410 R81; assay: MIC, serial dilution on nutrient agar; format: cell-based; conditions: K121410R81, 18 h
[4] = test system: Escherichia coli W677; assay: MIC, serial dilution on nutrient agar; format: cell-based
[5] = test system: Pseudomonas aeruginosa A3; assay: MIC, serial dilution on nutrient agar; format: cell-based
[6] = intravenous LD50 in mice; conditions: mouse, in vivo, estimated
[7] = test system: Salmonella enteritidis 1891; assay: MIC, serial dilution on nutrient agar; format: cell-based; conditions: Salmonella enterica
[8] = test system: Pseudomonas aeruginosa ROS134/PU21; assay: microbe, parasite or virus in culture; format: cell-based; conditions: ROS134/PU21, 18 h
[9] = test system: Pseudomonas aeruginosa 99; assay: MIC, serial dilution on nutrient agar; format: cell-based
[10] = test system: Corynebacterium bovis 1810; assay: MIC, serial dilution on nutrient agar; format: cell-based
[11] = test system: Providencia Pv 16; assay: MIC, serial dilution on nutrient agar; format: cell-based
[12] = test system: Pseudomonas aeruginosa No. 12; assay: MIC, serial dilution on nutrient agar; format: cell-based
[13] = test system: Escherichia coli K-12 C 600R/35; assay: MIC, serial dilution on nutrient agar; format: cell-based; conditions: K12C600R/35, 37° C., 18 hours
Method: (§1) The minimum inhibitory concentrations (mcg/ml) of 6"-deoxydibekacin (abbreviated as 6"-DDKB), 4",6"-dideoxydibekacin (abbreviated as 4",6"-DDKB), 1-N-(L-4-amino-2-hydroxybutyryl)-6"-deoxydibekacin (abbreviated as AHB-6"-DDKB) and 1-N-(L-4-amino-2-hydroxybutyryl)-4",6"-dideoxydibekacin (abbreviated as AHB-4",6"-DDKB) of this invention against various microorganisms were determined according to serial dilution method on a nutrient agar medium at 37° C., the estimation being made after 18 hours incubation. For comparison purpose, the minimum inhibitory concentrations of dibekacin (abbreviated as DKB) were also determined in the same manner as stated above.

[14] = test system: Shigella sonnei JS11746; assay: MIC, serial dilution on nutrient agar; format: cell-based; conditions: 37° C., 18 hours
Method: as §1

[15] = test system: Pseudomonas aeruginosa 21-75; assay: MIC, serial dilution on nutrient agar; format: cell-based; conditions: 2175, 37° C., 18 hours
Method: as §1

[16] = test system: Providencia 2991; assay: MIC, serial dilution on nutrient agar; format: cell-based; conditions: 37° C., 18 hours
Method: as §1

[17] = test system: Klebsiella pneumoniae PCI 602; assay: MIC, serial dilution on nutrient agar; format: cell-based; conditions: PCI602, 37° C., 18 hours
Method: as §1

[18] = test system: Pseudomonas aeruginosa GN315; assay: MIC, serial dilution on nutrient agar; format: cell-based; conditions: 37° C., 18 hours
Method: as §1

[19] = test system: Escherichia coli K-12 ML 1629; assay: MIC, serial dilution on nutrient agar; format: cell-based; conditions: K12ML1629, 37° C., 18 hours
Method: as §1

[20] = test system: Escherichia coli K-12 ML 1630; assay: MIC, serial dilution on nutrient agar; format: cell-based; conditions: K12ML1630, 37° C., 18 hours
Method: as §1

[21] = test system: Proteus vulgaris OX19; assay: MIC, serial dilution on nutrient agar; format: cell-based; conditions: 37° C., 18 hours
Method: as §1

[22] = test system: Pseudomonas maltophilia GN907; assay: MIC, serial dilution on nutrient agar; format: cell-based; conditions: Stenotrophomonas maltophilia, 37° C., 18 hours
Method: as §1

[23] = test system: Serratia SOU; assay: MIC, serial dilution on nutrient agar; format: cell-based; conditions: 37° C., 18 hours
Method: as §1

[24] = test system: Serratia 4; assay: MIC, serial dilution on nutrient agar; format: cell-based; conditions: 37° C., 18 hours
Method: as §1

[25] = test system: Escherichia coli K-12 J5B 11-2; assay: MIC, serial dilution on nutrient agar; format: cell-based; conditions: K12J5B112, 37° C., 18 hours
Method: as §1

[26] = test system: Shigella flexneri 4b JS11811; assay: MIC, serial dilution on nutrient agar; format: cell-based; conditions: 4BJS11811, 37° C., 18 hours
Method: as §1

[27] = test system: Serratia marcescens; assay: MIC, serial dilution on nutrient agar; format: cell-based; conditions: 37° C., 18 hours
Method: as §1

[28] = test system: Staphylococcus aureus 209P; assay: MIC, serial dilution on nutrient agar; format: cell-based; conditions: 37° C., 18 hours
Method: as §1

[29] = test system: Escherichia coli K-12 LA 290 R55; assay: microbe, parasite or virus in culture; format: cell-based; conditions: K12LA290R55, 18 h
[30] = test system: Escherichia coli K-12 R 388; assay: MIC, serial dilution on nutrient agar; format: cell-based; conditions: K12R388, 18 h
[31] = test system: Bacillus cereus ATCC 10702; assay: MIC, serial dilution on nutrient agar; format: cell-based
[32] = test system: Sarcina lutea PCI 1001; assay: MIC, serial dilution on nutrient agar; format: cell-based; conditions: Micrococcus luteus
[33] = test system: Staphylococcus epidermidis 109; assay: MIC, serial dilution on nutrient agar; format: cell-based
[34] = test system: Proteus rettgeri GN466; assay: MIC, serial dilution on nutrient agar; format: cell-based; conditions: Providencia rettgeri, GN466; nutrient agar, 37° C., 18 hours; read-out: MIC
[35] = test system: Proteus rettgeri GN311; assay: MIC, serial dilution on nutrient agar; format: cell-based; conditions: Providencia rettgeri, GN311, 18 h
[36] = test system: Salmonella typhi F63; assay: MIC, serial dilution on nutrient agar; format: cell-based; conditions: Salmonella enterica, 18 h
[37] = test system: Mycrococcus flavus FDA 16; assay: MIC, serial dilution on nutrient agar; format: cell-based; conditions: 18 h
[38] = test system: Escherichia coli JR255; assay: microbe, parasite or virus in culture; format: cell-based; conditions: JR255, 18 h
[39] = test system: Pseudomonas aeruginosa PST1; assay: MIC, serial dilution on nutrient agar; format: cell-based; conditions: PST1, 18 h
[40] = test system: Bacillus subtilis PCI 219; assay: MIC, serial dilution on nutrient agar; format: cell-based; conditions: PCI219, 37° C., 18 hours

C[C@H]1O[C@H](O[C@@H]2[C@@H](O)[C@H](O[C@H]3O[C@H](CN)CC[C@H]3N)[C@@H](N)C[C@H]2NC(=O)[C@@H](O)CCN)[C@H](O)[C@@H](N)[C@@H]1O [AHB-6"-DDKB, 1-N-(L-4-amino-2-hydroxybutyryl)-6"-deoxydibekacin] gave an MIC [1] of 50 µg/mL (≈ 93.2 µM), an MIC [2] of 6.25 µg/mL (≈ 11.6 µM) and an MIC [3] of 1.56 µg/mL (≈ 2.91 µM). The MIC ([4]; W677, 18 h) was 1.56 µg/mL (≈ 2.91 µM), the MIC ([5]; A3, nutrient agar, 37° C., 18 hours, read-out: MIC) was 3.13 µg/mL (≈ 5.83 µM) and the LD50 [6] was > 80 mg/kg. The MIC ([7]; nutrient agar, 37° C., 18 hours, read-out: MIC) was 3.13 µg/mL (≈ 5.83 µM), the MIC [8] was > 100 µg/mL and the MIC ([9]; Pseudomonas aeruginosa, 99, nutrient agar, 37° C., 18 hours, read-out: MIC) was 12.5 µg/mL (≈ 23.3 µM). For the same compound, the MIC ([10]; Corynebacterium bovis, 1810, nutrient agar, 37° C., 18 hours, read-out: MIC) was 3.13 µg/mL (≈ 5.83 µM), the MIC ([11]; PV16, nutrient agar, 37° C., 18 hours, read-out: MIC) was 25 µg/mL (≈ 46.6 µM) and the MIC ([12]; NO.12, nutrient agar, 37° C., 18 hours, read-out: MIC) was 25 µg/mL (≈ 46.6 µM). It also gave an MIC [13] of 1.56 µg/mL (≈ 2.91 µM), an MIC [14] of 6.25 µg/mL (≈ 11.6 µM) and an MIC [15] of 100 µg/mL (≈ 186 µM). The MIC [16] was 100 µg/mL (≈ 186 µM), the MIC [17] was 1.56 µg/mL (≈ 2.91 µM) and the MIC [18] was 50 µg/mL (≈ 93.2 µM). The MIC [19] was 1.56 µg/mL (≈ 2.91 µM), the MIC [20] was 3.13 µg/mL (≈ 5.83 µM) and the MIC [21] was 0.78 µg/mL (≈ 1.45 µM). For the same compound, the MIC [22] was > 100 µg/mL, the MIC [23] was 100 µg/mL (≈ 186 µM) and the MIC [24] was 6.25 µg/mL (≈ 11.6 µM). For the same compound, the MIC [25] was 1.56 µg/mL (≈ 2.91 µM), the MIC [26] was 6.25 µg/mL (≈ 11.6 µM) and the MIC [27] was 50 µg/mL (≈ 93.2 µM). The MIC [28] was 1.56 µg/mL (≈ 2.91 µM), the MIC [29] was 3.13 µg/mL (≈ 5.83 µM) and the MIC [30] was 0.78 µg/mL (≈ 1.45 µM). The MIC ([31]; ATCC10702, nutrient agar, 37° C., 18 hours, read-out: MIC) was 3.13 µg/mL (≈ 5.83 µM), the MIC ([32]; PCI1001, nutrient agar, 37° C., 18 hours, read-out: MIC) was 3.13 µg/mL (≈ 5.83 µM) and the MIC ([33]; Staphylococcus epidermidis, 109, 18 h) was 1.56 µg/mL (≈ 2.91 µM). The MIC [34] was 12.5 µg/mL (≈ 23.3 µM), the MIC [35] was 50 µg/mL (≈ 93.2 µM) and the MIC [36] was 0.39 µg/mL (≈ 0.727 µM). For the same compound, the MIC [37] was 1.56 µg/mL (≈ 2.91 µM), the MIC [38] was 1.56 µg/mL (≈ 2.91 µM) and the MIC [39] was 50 µg/mL (≈ 93.2 µM). The MIC [40] was < 0.2 µg/mL.
With NC[C@@H]1CC[C@@H](N)[C@@H](O[C@H]2[C@H](O)[C@@H](O[C@H]3O[C@H](CO)[C@@H](O)[C@H](N)[C@H]3O)[C@H](N)C[C@@H]2N)O1 [DKB, 3',4'-dideoxykanamycin B, reference compound] the MIC [1] was > 100 µg/mL, the MIC [2] was 6.25 µg/mL (≈ 13.8 µM) and the MIC [3] was 1.56 µg/mL (≈ 3.45 µM). It also gave an MIC ([4]; W677, nutrient agar, 37° C., 18 hours, read-out: MIC) of 1.56 µg/mL (≈ 3.45 µM), an MIC ([5]; A3, 18 h) of 3.13 µg/mL (≈ 6.93 µM) and an MIC ([7]; 18 h) of 3.13 µg/mL (≈ 6.93 µM). The MIC [8] was > 100 µg/mL, the MIC ([9]; Pseudomonas aeruginosa, 99, 18 h) was 50 µg/mL (≈ 111 µM) and the MIC ([10]; Corynebacterium bovis, 1810, 18 h) was 50 µg/mL (≈ 111 µM). For the same compound, the MIC ([11]; PV16, 18 h) was > 100 µg/mL, the MIC ([12]; NO.12, 18 h) was 6.25 µg/mL (≈ 13.8 µM) and the MIC [13] was 1.56 µg/mL (≈ 3.45 µM). For the same compound, the MIC [14] was 6.25 µg/mL (≈ 13.8 µM), the MIC [15] was > 100 µg/mL and the MIC [16] was > 100 µg/mL. For the same compound, the MIC [17] was 0.78 µg/mL (≈ 1.73 µM), the MIC [18] was > 100 µg/mL and the MIC [19] was 3.13 µg/mL (≈ 6.93 µM). For the same compound, the MIC [20] was 3.13 µg/mL (≈ 6.93 µM), the MIC [21] was 0.78 µg/mL (≈ 1.73 µM) and the MIC [22] was > 100 µg/mL. For the same compound, the MIC [23] was > 100 µg/mL, the MIC [24] was 100 µg/mL (≈ 221 µM) and the MIC [25] was 3.13 µg/mL (≈ 6.93 µM). The MIC [26] was 3.13 µg/mL (≈ 6.93 µM), the MIC [27] was 100 µg/mL (≈ 221 µM) and the MIC [28] was 0.78 µg/mL (≈ 1.73 µM). It also gave an MIC [29] of 100 µg/mL (≈ 221 µM), an MIC [30] of 1.56 µg/mL (≈ 3.45 µM) and an MIC ([31]; ATCC10702, 18 h) of 3.13 µg/mL (≈ 6.93 µM). For the same compound, the MIC ([32]; PCI1001, 18 h) was 100 µg/mL (≈ 221 µM), the MIC ([33]; Staphylococcus epidermidis, 109, nutrient agar, 37° C., 18 hours, read-out: MIC) was 1.56 µg/mL (≈ 3.45 µM) and the MIC [34] was 1.56 µg/mL (≈ 3.45 µM). The MIC [35] was 6.25 µg/mL (≈ 13.8 µM), the MIC [36] was 0.78 µg/mL (≈ 1.73 µM) and the MIC [37] was 100 µg/mL (≈ 221 µM). For the same compound, the MIC [38] was > 100 µg/mL, the MIC [39] was > 100 µg/mL and the MIC [40] was < 0.2 µg/mL.

From patent US4332794A, “6"-Deoxydibekacin, 4",6"-dideoxydibekacin and 1-N-aminoacyl derivatives thereof, and the production of these new compounds” (Zaidan Hojin Biseibutsu Kagaku Kenkyu Kai, priority 1979, dated 1982)
